From PubChem BioAssay AID1963854 (Molecular Pharmacology Branch, DTP, NCI, 2024)
Several values for one entry are separate records, joined by “and”; a condition that tells them apart may be missing. Identical values can stand only once.

System: 186277-243-T-J2-PDC complex spheroid viability
Assay: Anticancer human tumor 186277-243-T-J2-PDC patient-derived colon adenocarcinoma cell line growth inhibition [POLQ]
Conditions: for viability, T/C: stronger effect = lower value
Description: Multicellular complex tumor spheroid response to Polymerase (POL) inhibitors (novobiocin, ART-558, RP6685) in combination with a variety of drugs and investigational agents in selected tumor cell lines
The POL inhibitors (novobiocin, ART-558, and RP6685) were evaluated both individually and in combination with standard of care and investigational anticancer small molecules within a complex spheroid model of solid tumors. . Complex spheroids include a stromal component modeled by human endothelial cells (HUVEC) and fibroblasts modeled by human mesenchymal stem cells (MSCs). The concentration ranges selected for each drug and investigational agent were based upon clinically achievable concentrations if the clinical Cmax of the agent was known.
Compounds. The drugs and investigational agents: novobiocin (NSC847541), ART-558 (NSC835418), RP-6685 (NSC848927), peposertib (NSC802822), ceralasertib (NSC780249), elimusertib (NSC800525), camonsertib (NSC841442), AZD-1390 (NSC803789), olaparib (NSC753686), talazoparib (NSC767125), rucaparib (NSC756644), sotorasib (NSC818433), MRTX-1133 (NSC836407), SN-38 (NSC673596), topotecan (NSC609699), epotoside (NSC141540), doxorubicin (NSC123127), gemcitabine (NSC613327), 5-fluorouracil (NSC19893), paclitaxel (NSC125973), vemurafenib (NSC761431), MSA-2 (NSC828583), SN-011 (NSC837082), adavosertib (NSC754352), prexasertib (NSC758257), carboplatin (NSC241240) and oxaliplatin (NSC266046), were obtained from the National Cancer Institute (NCI) Developmental Therapeutics Program Chemical Repository (21). The FDA-approved anticancer drug set is available from the Developmental Therapeutics Program at https://dtp.cancer.gov/organization/dscb/obtaining/. […] The stock solutions were prepared in dimethyl sulfoxide (DMSO, Sigma-Aldrich, St. Louis, MO, cat. D2650), except for the platinum compounds which were prepared in saline (Quality Biological, Gaithersburg, MD, cat. 114-055-101), at 800-fold the tested concentration and stored at -70 degrees C prior to their use. All drugs and investigational agents were tested over a range starting from a high concentration at or near the clinical Cmax and decreasing in half-log increments. If the clinical Cmax for an agent had not been determined, the highest concentration tested was 10 microM, except for SN-38, which was tested at a high concentration of 1 microM.
Cell Culture. All cells were maintained in an incubator at 37 degrees C and 5% CO2 with 95% humidity. The PDC lines were cultured according to standard operating procedures established by the NCI PDMR (https://pdmr.cancer.gov). Table 3 of the manuscript, lists the cell lines along with the number of the three cell types plated to form the mct-spheroids and media for tumor cell growth. After thawing, all PDC lines, except 997537-175-T-J1-PDC and 415267-285-R-J2-PDC, were cultured in Matrigel-coated flasks prepared with a working solution of 1X Ham's F-12 nutrient mix, without supplementation (Thermo Fisher Scientific, cat. 11765054), 100 U/mL penicillin-streptomycin (Thermo Fisher Scientific, cat. 15140122), and 2.5% Matrigel (Corning Inc., Corning, NY, cat. 354248) for the first three passages. The two PDC lines 997537-175-T-J1-PDC and 415267-285-R-J2-PDC were cultured on uncoated flasks. The 857933-349-R-J2-PDC line was cultured in 6C/Colon 1B media containing advanced DMEM/F-12 (Thermo Fisher Scientific, cat. 12634028), 10 mM HEPES (Thermo Fisher Scientific, cat. 15630080), 1X GlutaMAX supplement (Thermo Fisher Scientific, cat. 35050061), 0.1 mg/mL primocin (InvivoGen, San Diego, CA, cat. ant-pm-2), 10% defined fetal bovine serum, heat inactivated (HyClone Laboratories Inc., Logan, UT, cat. SH30070.03HI), 50% L-WRN conditioned media (ATCC, cat. CRL-3276), 1.25 mM N-Acetyl-L-cysteine (Sigma-Aldrich, cat. A9165), 10 mM nicotinamide (Sigma-Aldrich, cat. N0636), 1X B-27 supplement (Thermo Fisher Scientific, cat. 17504044), 1X N-2 supplement (Thermo Fisher Scientific, cat. […]
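Further: spheroids exposed to compounds for seven days.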
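Wherever viability, T/C is given: 100% = DMSO vehicle control viability.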

| SMILES | viability, T/C (compound 0.0316 µM) | viability, T/C (compound 0.1 µM) | viability, T/C (compound 0.316 µM) | viability, T/C (compound 1 µM) | viability, T/C (compound 3.16 µM) | viability, T/C (compound 10 µM) | IC50 (curve of compound) | IC50 (compound alone, run of 10/31/2023) | viability, T/C (compound 0.01 µM) |
| --- | --- | --- | --- | --- | --- | --- | --- | --- | --- |
| CNCc1ccc(-c2[nH]c3cc(F)cc4c3c2CCNC4=O)cc1 | 101% and 103% and 98.4% | 108% and 122% and 93.3% | 99.6% and 100% and 106% | 97.1% and 93.2% and 108% | 116% and 115% and 119% | 93.5% and 116% and 103% | > 10000 nM | – | – |
| COC1C(OC(N)=O)C(O)C(Oc2ccc3c(O)c(NC(=O)c4ccc(O)c(CC=C(C)C)c4)c(=O)oc3c2C)OC1(C)C (stereo unspecified) | 99.1% [middle of 13 runs] | 97.7% [middle of 13 runs] | 97.7% [middle of 13 runs] | – | 103% [middle of 13 runs] | 92.6% [middle of 13 runs] | – | > 10000 nM | – |
| COc1cc(C2c3cc4c(cc3C(OC3OC5COC(C)OC5C(O)C3O)C3COC(=O)C23)OCO4)cc(OC)c1O (stereo unspecified) | 99.9% and 94.4% and 99.1% | 111% and 100% and 118% | 82.8% and 130% and 71.7% | 48.1% and 89.2% and 45.2% | 30.1% and 59.8% and 27.6% | 14.3% and 30.9% and 11.9% | 989 nM and 4470 nM and 810 nM | – | – |
| COc1cc2cc(C(=O)CCC(=O)O)sc2cc1OC | 92.9% and 94% and 94.8% | 92.5% and 101% and 99.4% | 100% and 88% and 107% | 111% and 86% and 87.3% | 94.3% and 96.3% and 101% | 94.8% and 95.2% and 101% | > 10000 nM | – | – |
| COc1ccc([C@@H](O)c2cc(-c3ncnc4cc(N5CCOCC5)ccc34)c(F)cc2Cl)nn1 | 113% and 93.8% and 106% | 98% and 93.7% and 97.8% | 86.5% and 101% and 97.7% | 98.4% and 104% (2×) | 80.8% and 96.9% and 74.1% | 31.1% and 61% and 30.1% | 6450 nM and > 10000 nM and 5930 nM | – | – |
| COc1cccc(OCCCN)c1-c1cc(Nc2cnc(C#N)cn2)n[nH]1 | 4.75% and 10.6% and 9.65% | 4.55% and 9.76% and 10.4% | 4.05% and 9.54% and 9.26% | 5.58% and 9.9% and 9.33% | – | – | < 3.16 nM | – | 5.26% and 13.4% and 12.2% |
| COc1cccc2c1C(=O)c1c(O)c3c(c(O)c1C2=O)CC(O)(C(=O)CO)CC3OC1CC(N)C(O)C(C)O1 (stereo unspecified) | 109% and 154% and 91.8% | 56.6% and 106% and 42.8% | – | 0.64% and 1.27% and 0.32% | 0.26% and 1.06% and 0.23% | 0.49% and 1.07% and 0.37% | 118 nM and 250 nM and 84.5 nM | – | – |
